This is an account of results in patent US11992499B2, “Quinoline derivatives for use in the treatment of inflammation diseases” (ABIVAX, priority 2018, dated 2024).

Entries after “also recorded” stand apart in the source; their conditions may differ.

The subject of assay [1] is STAM model of non-alcoholic steatohepatitis. The experiment in a line: STAM model of NASH: Alpha-SMA immunostaining. The class given is in vivo, mice. The settings on record: for Alpha-SMA-positive area (mean ± SD): n = 8. The protocol:
NASH was induced in 48 male mice by a single subcutaneous injection of 200 μg streptozotocin (STZ, Sigma-Aldrich, USA) solution 2 days after birth and feeding with high fat diet (HFD, 57 kcal % fat, Cat #HFD32, CLEA Japan, Inc., Japan) after 4 weeks of age. Compound A was administered at 3 dose levels of 10, 20 and 40 mg/kg once daily from 6 to 9 weeks of age. Compound B was administered at a dose of 40 mg/kg once daily from 6 to 9 weeks of age. Telmisartan was administered at a dose of 10 mg/kg once daily from 6 to 9 weeks of age. […] (Table 9 herein after)

In the next assay the test system is Sugen hypoxia model. Description: Rat Sugen hypoxia model of pulmonary arterial hypertension: mean pulmonary pressure. In kind it is in vivo. The settings on record: for Effect on mean pulmonary arterial pressure: rat Sugen hypoxia model, 70 mg/kg; for Mean Pulmonary Pressure: SuHx. The protocol:
Animals from Groups 2 to 5 (see Table 10) receive a single subcutaneous injection of sugen (20 mg/kg in 2 mL/kg volume) solution (10 mg/mL) on Day 0 and returned to their cages. Animals from Group 1 receive one subcutaneous injection of DMSO at 2 mL/kg (vehicle for sugen) on Day 0 and returned to their respective cages.
Groups 2-5 are placed in cages for which the controlled air is adjusted to receive a FiO2 equivalent to 0.10 (10%) using a mixture of nitrogen and ambient air controlled by the ventilated cage system. They are kept under these hypoxic conditions for 21 days. While in hypoxia, cages are cleaned and changed once a week, exposing the animals to ambient oxygen levels for less than 10 minutes. They are exposed to ambient oxygen levels from Day 22 to Day 56. Group 1 animals remain in cages exposed to ambient oxygen (normoxic) levels for 56 days. The animals are observed on a daily basis for any changes in their behaviour and general health status.
Treatment with the compound A, sildenafil or vehicle is administered as of Day 22 (Groups 2-5) as scheduled and described in Table 10. The Groups 2-4 receives a single dose per day. The reference group 5 receives sildenafil twice a day. Food and water are given ad libitum. Daily observation of the behaviour and general health status of the animals is done. Weekly body weight is taken.
Surgical Instrumentation and Measurement of Hemodynamic and Functional Parameters in Efficacy Study Animals • 1. On the selected day of surgery, rats are anaesthetized with a mixture of 2 to 2.5% isoflurane USP (Abbot Laboratories, Montreal, Canada) in oxygen, and placed on a heating pad to maintain body temperature. • 2. Rats are tracheotomized and immediately ventilated by means of a positive-pressure rodent respirator set at ≈10 ml/kg body weight at a frequency of 65-70 strokes/min. • 3. Lead II ECG contact electrodes is placed on the rat to continuously monitor the ECG during the surgical procedure. • 4. A cannula connected to a pressure transducer is inserted into the left femoral artery to measure the arterial blood pressure. • 5. A cannula connected to a pressure transducer is inserted into the right atria through the right jugular vein to measure the right atria pressure. • 6. The heart is exposed through a sternotomy and a 20GA 1.16 in Insyte is introduced into the right ventricle and rapidly hooked up to a saline filled PE-50 catheter connected to a transducer. • 7. Following a few seconds of right ventricular pressure recording, the Insyte is further advanced into the pulmonary artery to allow PAP recording for an additional 60 seconds. • 8. Hemodynamic parameters are recorded continuously for the duration of the procedure or until loss of PAP signal. • 9. Following hemodynamic monitoring, chest cavity is further opened to expose the lung. The muscle over the trachea is dissected away to remove the lungs and heart. Harvested tissue is rinsed with PBS to remove any excess of blood before to be weighed. • 10. For the histology and casting of the lungs, the process is as follows; 1) eight (8) rats per group is reserved to assess the histology of the left lung and is therefore be treated as described in point 12 of this section 8.2; 2) Two (2) rats per group serve to enable quantitative characterization of the three-dimensional vascular structure of the left lung and therefore is treated as described in section 8.3 for casting of the left lung. • 11. For histology, the left lobe is inflated using a 10 mL syringe filled with fixative (10% NBF) with attached blunt tip needle (23 g). Needle tip is inserted into the trachea, held in place with tied suture while another syringe is tied to the pulmonary artery. The lung is inflated gently at physiological pressure (20-25 mmHg) until all lobes are fully, uniformly, and consistently expanded (not allowing fixative to ooze through lung surface). This provides optimal vascular and airway expansion without causing excessive tissue disruption. […]

Assay [2] relates to STAM model of non-alcoholic steatohepatitis. The experiment in a line: STAM model of NASH: HE staining and NAFLD Activity score. In kind it is in vivo, mice. Also noted: key to NAFLD Activity score (mean ± SD): NAFLD Activity score per Kleiner et al. 2005 criteria. The procedure:
NASH was induced in 48 male mice by a single subcutaneous injection of 200 μg streptozotocin (STZ, Sigma-Aldrich, USA) solution 2 days after birth and feeding with high fat diet (HFD, 57 kcal % fat, Cat #HFD32, CLEA Japan, Inc., Japan) after 4 weeks of age. Compound A was administered at 3 dose levels of 10, 20 and 40 mg/kg once daily from 6 to 9 weeks of age. Compound B was administered at a dose of 40 mg/kg once daily from 6 to 9 weeks of age. Telmisartan was administered at a dose of 10 mg/kg once daily from 6 to 9 weeks of age. For HE staining, sections were cut from paraffin blocks of liver tissue prefixed in Bouin's solution and stained with Lillie-Mayer's Hematoxylin (Muto Pure Chemicals Co., Ltd., Japan) and eosin solution (FUJIFILM Wako Pure Chemical Corporation). NAFLD Activity score (NAS) was calculated according to the criteria of Kleiner (Kleiner D E. et al., Hepatology, 2005; 41:1313). To visualize collagen deposition, Bouin's fixed liver sections were stained using picro-Sirius red solution (Waldeck, Germany). For quantitative analysis of fibrosis area, bright field images of Sirius red-stained sections were captured around the central vein using a digital camera (DFC295; Leica, Germany) at 200-fold magnification, and the positive areas in 5 fields/section were measured using ImageJ software (National Institute of Health, USA).

[3] abbreviates: summary statement, dose not stated.
[4] abbreviates: 10 mg/kg PO QD, 6-9 wks of age (Compound A low, Telmisartan groups), n = 8.
[5] abbreviates: 20 mg/kg PO QD, 6-9 wks of age (Compound A middle group), n = 8.
[6] abbreviates: 40 mg/kg PO QD, 6-9 wks of age (Compound A high, Compound B groups), n = 8.

Take `FC(F)(F)Oc1ccc(Nc2ccc3cccc(Cl)c3n2)cc1` [8-Chloro-N-(4-(trifluoromethoxy)phenyl)quinolin-2-amine]: the “Alpha-SMA in the liver” value in assay [1] (setting [3]) is recorded as “decreases”. Besides, the “Effect on mean pulmonary arterial pressure” value with Sugen hypoxia model is reported as “tendency to decrease”. The “NAS compared with the Vehicle group” value in assay [2] (setting [3]) is given as “decreasing trend”.
Take `FC(F)(F)Oc1ccc(Nc2ccc3cccc(Cl)c3n2)cc1` [Compound A, 8-Chloro-N-(4-(trifluoromethoxy)phenyl)quinolin-2-amine]: the “Alpha-SMA-positive area (mean ± SD)” value turned out to be 1.39 ± 1.25% in assay [1] (10 mg/kg PO QD, 6-9 wks of age (Compound A low, Telmisartan groups)); 0.91 ± 0.55% in assay [1] (20 mg/kg PO QD, 6-9 wks of age (Compound A middle group)); 0.85 ± 0.41% in assay [1] (40 mg/kg PO QD, 6-9 wks of age (Compound A high, Compound B groups)). Further, the “Alpha-SMA-positive area compared with the Vehicle group” value in assay [1] (40 mg/kg PO QD (Compound A high group)) is reported as “tended to decrease”. For the same compound, the “Mean Pulmonary Pressure” value in the assay with Sugen hypoxia model (female rats, 70 mg/kg QD gavage Day 22 to Day 56) was determined as 24.1 mmHg; in the assay with Sugen hypoxia model (female rats, 120 mg/kg QD gavage Day 22 to Day 56), 34.4 mmHg; in the assay with Sugen hypoxia model (male rats, 70 mg/kg QD gavage Day 22 to Day 56), 26.8 mmHg; with Sugen hypoxia model (male rats, 120 mg/kg QD gavage Day 22 to Day 56) it was 33.6 mmHg. Moreover, the “Effect on mean pulmonary arterial pressure” value in the assay with Sugen hypoxia model is given as “tendency to decrease”. Also, the “NAS compared with the Vehicle group” value in assay [2] (10 mg/kg PO QD (Compound A low, Telmisartan groups)) was “tended to decrease; also recorded: decreasing trend”; in assay [2] (20 mg/kg PO QD (Compound A middle group)) it was “tended to decrease; also recorded: decreasing trends”; in assay [2] (40 mg/kg PO QD (Compound A high, Compound B groups)), “tended to decrease; also recorded: decreasing trend”; in assay [2] (setting [3]), “decreasing trends”. Besides, the figures for the “Hepatocyte ballooning score 0 (None), number of mice” value in assay [2] (setting [4]), in assay [2] (setting [5]) and in assay [2] (setting [6]) were 3, 3 and 5, respectively. Also, the “Hepatocyte ballooning score 1 (Few balloon cells), number of mice” value in assay [2] (setting [4]) came to 2; in assay [2] (setting [5]), 3; in assay [2] (setting [6]) it was 2. Also, the “Hepatocyte ballooning score 2 (Many cells/prominent ballooning), number of mice” value in assay [2] (setting [4]) worked out at 3; in assay [2] (setting [5]) it was 2; in assay [2] (setting [6]) it was 1. Also, the “Lobular inflammation score 2 (2-4 foci/200×), number of mice” value in assay [2] (setting [4]) is 7; in assay [2] (setting [5]), 6; in assay [2] (setting [6]) it was 2. Moreover, the figures for the “Lobular inflammation score 3 (>4 foci/200×), number of mice” value in assay [2] (setting [4]), in assay [2] (setting [5]) and in assay [2] (setting [6]) were 1, 2 and 5, respectively. In addition, the figures for the “NAFLD Activity score (mean ± SD)” value in assay [2] (setting [4]), in assay [2] (setting [5]) and in assay [2] (setting [6]) were 3.6 ± 1.1, 3.4 ± 1.2 and 3.4 ± 1.3, respectively. The “Steatosis score 0 (<5%), number of mice” value in assay [2] (setting [4]) was determined as 4; in assay [2] (setting [5]), 6; in assay [2] (setting [6]), 5. In addition, the “Steatosis score 1 (5-33%), number of mice” value is on record as 4 in assay [2] (setting [4]), 2 in assay [2] (setting [5]) and 3 in assay [2] (setting [6]). Also, the “Lobular inflammation score 1 (<2 foci/200×), number of mice” value in assay [2] (setting [6]) was 1. For the same compound, the “Overall effect in this NASH model” value in assay [2] (conclusion of the study) was “potential anti-NAS and anti-fibrosis effects”.
